From patent US10829484B2, “Compounds and methods for kinase modulation, and indications therefor” (Plexxikon Inc., priority 2015, dated 2020)
Where a chain is given by its changes, count along the chain named.

Tests used:
[1] = biological target: T1, BaF3-FLT3-ITD-F691L (Homo sapiens, UniProt P36888, INS600HVDFREYEYD/F691L, cells depend on it); experiment: CTB viability assay CS0047, BaF3-FLT3-ITD-F691L; format: cell-based, murine; details: BaF3-FLT3-ITD-F691L cells, CellTiter Blue viability, 72 hours; read-out: Cell Assay: CS0047:BaF3-FLT3-ITD-F691L CTB:IC50
T1 sequence (P36888 with tags, fused parts or gaps INS600HVDFREYEYD/F691L): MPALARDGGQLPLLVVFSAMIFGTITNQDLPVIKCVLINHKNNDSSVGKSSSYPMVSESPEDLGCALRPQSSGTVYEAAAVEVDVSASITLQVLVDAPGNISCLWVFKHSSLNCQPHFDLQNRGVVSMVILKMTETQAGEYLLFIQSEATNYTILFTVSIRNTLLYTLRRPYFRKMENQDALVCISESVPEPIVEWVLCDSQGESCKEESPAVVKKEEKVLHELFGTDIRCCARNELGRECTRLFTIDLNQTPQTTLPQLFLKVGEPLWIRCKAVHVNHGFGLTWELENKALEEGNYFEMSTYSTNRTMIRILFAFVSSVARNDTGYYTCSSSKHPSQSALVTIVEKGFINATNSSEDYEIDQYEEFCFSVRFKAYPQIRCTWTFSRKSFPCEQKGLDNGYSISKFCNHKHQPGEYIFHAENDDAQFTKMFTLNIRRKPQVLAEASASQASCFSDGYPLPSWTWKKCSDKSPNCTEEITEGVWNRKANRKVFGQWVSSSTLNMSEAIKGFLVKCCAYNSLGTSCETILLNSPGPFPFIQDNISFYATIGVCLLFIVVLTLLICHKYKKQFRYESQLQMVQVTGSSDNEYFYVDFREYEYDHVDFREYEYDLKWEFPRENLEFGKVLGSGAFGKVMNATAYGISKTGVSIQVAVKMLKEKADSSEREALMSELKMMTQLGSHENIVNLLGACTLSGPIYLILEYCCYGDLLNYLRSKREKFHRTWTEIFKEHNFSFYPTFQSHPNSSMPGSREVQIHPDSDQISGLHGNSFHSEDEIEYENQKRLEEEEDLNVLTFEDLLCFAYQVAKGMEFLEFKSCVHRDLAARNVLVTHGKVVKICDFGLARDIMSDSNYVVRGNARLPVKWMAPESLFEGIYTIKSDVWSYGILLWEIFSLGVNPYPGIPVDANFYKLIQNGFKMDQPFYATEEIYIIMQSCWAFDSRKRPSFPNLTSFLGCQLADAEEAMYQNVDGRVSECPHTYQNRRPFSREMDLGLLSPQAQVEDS
Excerpt: (§1) Gene constructs containing the human FLT3 sequences FLT3-ITD, FLT3-ITD-F691L, FLT3-ITD-D835V and FLT3-D835V were synthesized by reverse translation of the human protein sequences, with codons optimized for mammalian expression. Sequence of the internal tandem duplication (ITD) was based on the MV4-11 ITD sequence. Synthetic DNA constructs were cloned into the pMSCV puro retroviral vector (Clontech) and transfected into the EcoPack2-293 packaging cell line (Clontech) to generate retroviruses that contain the different FLT3 constructs. Viruses were transduced into the IL-3-dependent, murine […] cell line, Ba/F3, and selected for puromycin resistance and IL-3 independence. All cell lines were cloned by limiting dilution and clones were used for all subsequent cell assays. Overexpression of the FLT3 mutants in the Ba/F3 cells results in constitutive phosphorylation of the exogenous FLT3 protein, which is required for IL-3 independence.
(§2) Cell lines were serum starved overnight in media containing 0.5% FBS, plated at 15,000 cells/well in 96-well white-walled tissue culture plates, and 3-fold serial dilutions of test compounds of Formula I were added for 72 hours at 37° C. CellTiter Blue (CTB, Promega) was added and incubated for an additional 3 hours at 37° C. Fluorescence was read at 560 nm excitation, 590 nm emission. Wells with CTB+media only were used for background subtraction, and the fluorescence of compound-treated cells was normalized to the fluorescence of DMSO-treated cells. IC50s were determined using Igor Pro software. All compounds are assayed in duplicate cell plates.

[2] = biological target: T2, BaF3-FLT3-ITD-D835V (Homo sapiens, UniProt P36888, INS600HVDFREYEYD/D835V, cells depend on it); experiment: CTB viability assay CS0048, BaF3-FLT3-ITD-D835V; format: cell-based, murine; details: BaF3-FLT3-ITD-D835V cells, CellTiter Blue viability, 72 hours; read-out: Cell Assay: CS0048: BaF3-FLT3-ITD-D835V CTB:IC50
T2 sequence (P36888 with tags, fused parts or gaps INS600HVDFREYEYD/D835V): T1 sequence (P36888 with tags, fused parts or gaps INS600HVDFREYEYD/F691L) with L701F, D845V
Excerpt: as §1, §2

| Structure (SMILES) | GI50 [1] [µM] | GI50 [2] [µM] |
| --- | --- | --- |
| Cc1nn(C)cc1Nc1ncc(-c2ccc(CC(=O)Nc3cc(C4(C(F)(F)F)CC4)on3)c(F)c2)cc1C#N [P-156, 2-[4-[5-cyano-6-[(1,3-dimethylpyrazol-4-yl)amino]-3-pyridyl]-2-fluorophenyl]-N-[5-[1-(trifluoromethyl)cyclopropyl]isoxazol-3-yl]acetamide] | 0.01 to 0.05 | 0.01 to 0.05 |
| CC(C)c1nn(C)cc1Nc1ncc(-c2ccc(CC(=O)Nc3cc(C4(C(F)(F)F)CC4)on3)c(F)c2)cn1 [P-168, 2-[2-fluoro-4-[2-[(3-isopropyl-1-methyl-pyrazol-4-yl)amino]pyrimidin-5-yl]phenyl]-N-[5-[1-(trifluoromethyl)cyclopropyl]isoxazol-3-yl]acetamide] | 0.01 to 0.05 | 0.01 to 0.05 |
| COCCn1ncc(Nc2ncc(-c3ccc(CC(=O)Nc4cc(C5(C(F)(F)F)CC5)on4)c(F)c3)cn2)c1C1CC1 [P-204, 2-[4-[2-[[5-cyclopropyl-1-(2-methoxyethyl)pyrazol-4-yl]amino]pyrimidin-5-yl]-2-fluoro-phenyl]-N-[5-[1-(trifluoromethyl)cyclopropyl]isoxazol-3-yl]acetamide] | 0.01 to 0.05 | 0.01 to 0.05 |
| O=C(Cc1ccc(-c2cnc(Nc3cnn(CCO)c3C3CC3)nc2)cc1F)Nc1cc(C2(C(F)(F)F)CC2)on1 [P-210, 2-[4-[2-[[5-cyclopropyl-1-(2-hydroxyethyl)pyrazol-4-yl]amino]pyrimidin-5-yl]-2-fluorophenyl]-N-[5-[1-(trifluoromethyl)cyclopropyl]isoxazol-3-yl]acetamide] | 0.01 to 0.05 | 0.01 to 0.05 |
